TGI and GI50 data for 13 compounds are collected here from PubChem BioAssay (NCI).

Test systems include SNB-19 CNS; TK-10 renal; NCI-H23 lung; OVCAR-4 ovarian; MDA-N; SK-OV-3 ovarian; HCT-15 colon; IGROV1 ovarian; UO-31 renal; HCC-2998 colon; SR leukemia.
What all share (assay): NCI anticancer screen, dose series, 48 h

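How tested: cells in 96-well plates exposed to compound for 48 hours at five concentrations. The concentration for 50% growth inhibition is given as GI50. TGI marks complete inhibition of growth.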 *1 amine or outer side, *2 acyl side, *3 side chain or, on linkers, in order; H or OH if unused. Where a SMILES comes first, the peptide text is derived from it. Bridges are numbered along the chain shown (N, C = ends). Roman numbers before positions name the chains, in order. [ ]: non-standard residue; d: D form. Actinocin(9to1) = Cc1c2oc3c(C)ccc(C(=O)[*:1])c3nc-2c(C(=O)[*:2])c(N)c1=O; NMeV = CN[CH](C(=O)O)C(C)C; Sar = CNCC(=O)O A value given as a limit tells only on which side of the number the result lay.

Regarding `Cn1c(O)c(/C=N/c2ncccn2)c(=O)[nH]c1=O`, the TGI with SNB-19 CNS, with TK-10 renal, in the assay on NCI-H23 lung, in the assay on OVCAR-4 ovarian, in the assay on MDA-N and in the assay with SK-OV-3 ovarian was > 100 µM each time. The TGI in the assay with HCT-15 colon, in the assay with IGROV1 ovarian and with UO-31 renal was > 100 µM in each case.
As to `Cn1c(=O)[nH]n(-c2ccc3ccccc3c2)c1=O`, the TGI with SNB-19 CNS, in the assay with TK-10 renal, with NCI-H23 lung, with OVCAR-4 ovarian, in the assay on MDA-N and in the assay with SK-OV-3 ovarian was > 100 µM in each case. Besides, the TGI with HCC-2998 colon, with HCT-15 colon, in the assay on IGROV1 ovarian and with UO-31 renal was > 100 µM in each case.
As to `CCOC(=O)/C(C1=N[C@H](C(=O)OCC)CS1)=C(\O)c1ccccc1`, the TGI with SNB-19 CNS, in the assay with NCI-H23 lung, in the assay on OVCAR-4 ovarian, in the assay on HCC-2998 colon, in the assay with HCT-15 colon and with IGROV1 ovarian was > 100 µM throughout. Also, the TGI in the assay with UO-31 renal and in the assay on SR leukemia was > 100 µM each time.
`COc1ccc(-c2cc(-c3ccc(OC)c(OC)c3)nc(SCCCC(=O)NO)n2)cc1`: the GI50 with SNB-19 CNS is 2.54 µM; with TK-10 renal, 0.722 µM; in the assay on NCI-H23 lung, 1.96 µM; with OVCAR-4 ovarian, 2.02 µM; with SK-OV-3 ovarian, 1.45 µM; with HCC-2998 colon, 2.14 µM. Besides, the GI50 is 0.553 µM in the assay on HCT-15 colon, 0.301 µM with UO-31 renal and 0.552 µM in the assay with SR leukemia. For the same compound, the TGI with SNB-19 CNS was 39.1 µM; in the assay with TK-10 renal it was > 100 µM; in the assay on NCI-H23 lung, 6.16 µM; with OVCAR-4 ovarian, > 100 µM; in the assay on SK-OV-3 ovarian, 4.93 µM; with HCC-2998 colon, 5.63 µM. For the same compound, the TGI stood at 3.59 µM in the assay with HCT-15 colon, 1.44 µM in the assay with UO-31 renal and 15.5 µM with SR leukemia.
As for `CC(=O)CCCCCCCCCCCC[C@@H]1CC[C@H](C)[C@H](O)N1`, the TGI with SNB-19 CNS, in the assay with TK-10 renal, in the assay on NCI-H23 lung, in the assay on SK-OV-3 ovarian, in the assay with HCC-2998 colon and with HCT-15 colon was > 100 µM each time. The TGI in the assay with IGROV1 ovarian, in the assay on UO-31 renal and in the assay on SR leukemia was > 100 µM throughout.
Consider `S=c1oc(CCCCCCCCc2nn(CNc3ccc(Cl)cc3)c(=S)o2)nn1CNc1ccc(Cl)cc1`, for which the TGI in the assay with SNB-19 CNS, in the assay with TK-10 renal, with NCI-H23 lung, in the assay with OVCAR-4 ovarian, in the assay on MDA-N and with SK-OV-3 ovarian was > 100 µM each time. Further, the TGI with HCC-2998 colon, in the assay on HCT-15 colon, in the assay with IGROV1 ovarian and in the assay with UO-31 renal was > 100 µM each time.
Take `Cc1ccc(S(=O)(=O)CC2CCCn3c2c(C#N)c2ccccc23)cc1` (stereo not given): the TGI in the assay with SNB-19 CNS, in the assay on TK-10 renal, with NCI-H23 lung, in the assay on OVCAR-4 ovarian, with SK-OV-3 ovarian and with HCC-2998 colon was > 100 µM throughout. In addition, the TGI with HCT-15 colon, in the assay on IGROV1 ovarian and in the assay on UO-31 renal was > 100 µM each time.
Regarding `Cc1c2oc3c(C)ccc(C(=O)NC4C(=O)NC(Cc5ccc(O)cc5)C(=O)N5CCCC5C(=O)N(C)CC(=O)N(C)C(C(C)C)C(=O)OC4C)c3nc-2c(C(=O)NC2C(=O)NC(Cc3ccc(O)cc3)C(=O)N3CCCC3C(=O)N(C)CC(=O)N(C)C(C(C)C)C(=O)OC2C)c(N)c1=O` (stereo not given) (I: TYP[Sar][NMeV] / II: TYP[Sar][NMeV]; ester I:1-I:C, II:1-II:C; linker I:N-II:N via Actinocin(9to1); configuration not given here), the TGI was > 56.1 µM in the assay on SNB-19 CNS; > 80.3 µM in the assay on TK-10 renal; > 79.2 µM in the assay on NCI-H23 lung; > 42.1 µM in the assay with OVCAR-4 ovarian; > 100 µM in the assay on MDA-N; > 100 µM in the assay on SK-OV-3 ovarian. Further, the TGI in the assay with HCC-2998 colon is > 100 µM; in the assay on HCT-15 colon it was > 100 µM; in the assay on IGROV1 ovarian, 32.6 µM; with UO-31 renal, > 61.4 µM.
As to `Cc1cc(=O)[nH]c(NN2C(Cl)C(=O)C2c2ccco2)n1` (stereo not given), the TGI with SNB-19 CNS, with TK-10 renal, in the assay on NCI-H23 lung, with OVCAR-4 ovarian, in the assay with HCC-2998 colon and with HCT-15 colon was > 100 µM throughout. In addition, the TGI in the assay on IGROV1 ovarian, with UO-31 renal and in the assay on SR leukemia was > 100 µM in each case.
Consider `COCCN(C(=O)c1ccccc1)C1CCC(=O)c2[nH]c3ccccc3c21` (stereo not given), for which the TGI came out at 24.3 µM in the assay with SNB-19 CNS; 35.5 µM in the assay with TK-10 renal; 36.9 µM in the assay with NCI-H23 lung; 22.2 µM in the assay on OVCAR-4 ovarian; 29 µM in the assay on SK-OV-3 ovarian; 31.8 µM with HCC-2998 colon. For the same compound, the TGI in the assay on HCT-15 colon was 31.9 µM; with IGROV1 ovarian, 13.6 µM; in the assay on UO-31 renal, 25.2 µM; in the assay on SR leukemia, > 24.8 µM.
For the compound `CC(=O)NCC1OC2COC(c3ccccc3)OC2C2N=C(c3ccccc3)OC12` (stereo not given), the TGI with SNB-19 CNS, in the assay with TK-10 renal, with NCI-H23 lung, with OVCAR-4 ovarian, in the assay with MDA-N and with SK-OV-3 ovarian was > 100 µM each time. In addition, the TGI in the assay with HCC-2998 colon, in the assay with HCT-15 colon and with UO-31 renal was > 100 µM in each case.
On to `Cc1cccc(=O)c([O-])c1.Cc1cccc(=O)c([O-])c1.Cc1cccc(=O)c([O-])c1.Cc1cccc(=O)c([O-])c1.[Th+4]`, for which the TGI in the assay with SNB-19 CNS is > 100 µM; in the assay with TK-10 renal it was > 100 µM; in the assay with NCI-H23 lung, > 76.6 µM; with OVCAR-4 ovarian it was > 100 µM; in the assay with SK-OV-3 ovarian, > 100 µM; in the assay on HCC-2998 colon, > 100 µM. The TGI with HCT-15 colon, in the assay on IGROV1 ovarian, in the assay on UO-31 renal and in the assay on SR leukemia was > 100 µM each time.
For the compound `CCCCN(CCCC)C1=Nc2ccccc2-n2c(nnc2C(=O)OCC)C1`, the TGI in the assay on SNB-19 CNS, in the assay on TK-10 renal, in the assay on NCI-H23 lung, in the assay on OVCAR-4 ovarian, in the assay with SK-OV-3 ovarian and in the assay with HCC-2998 colon was > 100 µM in each case. In addition, the TGI with IGROV1 ovarian is > 100 µM; in the assay on UO-31 renal, > 100 µM; with SR leukemia it was 56.3 µM.
